Experimental data: paper PMC10993126, “Capture of endogenous lipids in peptidiscs and effect on protein stability and activity” (iScience, 2024)

B1: His6-tagged MsbA (natural protein, UniProt P60752 1-582, looked up)
chain: MHNDKDLSTWQTFRRLWPTIAPFKAGLIVAGVALILNAASDTFMLSLLKPLLDDGFGKTDRSVLVWMPLVVIGLMILRGITSYVSSYCISWVSGKVVMTMRRRLFGHMMGMPVSFFDKQSTGTLLSRITYDSEQVASSSSGALITVVREGASIIGLFIMMFYYSWQLSIILIVLAPIVSIAIRVVSKRFRNISKNMQNTMGQVTTSAEQMLKGHKEVLIFGGQEVETKRFDKVSNRMRLQGMKMVSASSISDPIIQLIASLALAFVLYAASFPSVMDSLTAGTITVVFSSMIALMRPLKSLTNVNAQFQRGMAACQTLFTILDSEQEKDEGKRVIERATGDVEFRNVTFTYPGRDVPALRNINLKIPAGKTVALVGRSGSGKSTIASLITRFYDIDEGEILMDGHDLREYTLASLRNQVALVSQNVHLFNDTVANNIAYARTEQYSREQIEEAARMAYAMDFINKMDNGLDTVIGENGVLLSGGQRQRIAIARALLRDSPILILDEATSALDTESERAIQAALDELQKNRTSLVIAHRLSTIEKADEIVVVEDGVIVERGTHNDLLEHRGVYAQLHKMQFGQ
notes: The same protein was prepared with different amounts of endogenous lipid (DDC, DLW, DHW in peptidisc; DDM in detergent); also called DDC-MsbA; DLW-MsbA; source: E. coli BL21(DE3), membranes solubilized with DDM, purified (Ni-NTA), reconstituted in peptidiscs or kept in DDM

Experiments:
[1] = tested on: T1, SecYEG (HD-SecYEG; PD-SecYEG-CL); experiment: CL added before peptidisc reconstitution; SecA ATPase by Malachite green; SecA binding by clear-native PAGE; format: biochemical, Escherichia coli; conditions: 20:1 lipid to SecYEG molar ratio; with SecA; 1 mM ATP, 10 mM MgCl2, pH 8.8, 37°C; lipid activator
T1 construct: gene secY; read out with SecA; with Protein translocase subunit SecA

[2] = molecular target: the molecule itself; experiment: native gel or EMSA; 5-13% native PAGE with Coomassie staining of the DDM-MsbA and peptidisc-MsbA preparations (DDC, DLW, DHW)

T1 sequence (P0AG96 whole entry): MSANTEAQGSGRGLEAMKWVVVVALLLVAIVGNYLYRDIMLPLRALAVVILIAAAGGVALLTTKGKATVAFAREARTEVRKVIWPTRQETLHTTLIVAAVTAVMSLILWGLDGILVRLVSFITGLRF
T1 sequence (P0AGA2 whole entry, further chain): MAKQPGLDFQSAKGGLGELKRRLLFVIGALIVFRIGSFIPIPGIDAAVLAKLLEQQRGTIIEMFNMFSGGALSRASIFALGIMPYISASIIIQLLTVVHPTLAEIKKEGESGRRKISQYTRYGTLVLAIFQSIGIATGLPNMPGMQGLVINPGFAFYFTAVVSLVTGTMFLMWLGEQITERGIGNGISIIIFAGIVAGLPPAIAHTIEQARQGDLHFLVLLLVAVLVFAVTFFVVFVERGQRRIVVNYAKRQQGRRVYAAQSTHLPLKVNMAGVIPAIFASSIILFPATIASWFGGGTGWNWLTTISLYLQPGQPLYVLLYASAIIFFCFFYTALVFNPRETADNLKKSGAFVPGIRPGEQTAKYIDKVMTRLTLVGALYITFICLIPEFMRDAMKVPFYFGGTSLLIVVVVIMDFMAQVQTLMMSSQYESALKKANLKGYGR
T1 sequence (P10408 whole entry, further chain): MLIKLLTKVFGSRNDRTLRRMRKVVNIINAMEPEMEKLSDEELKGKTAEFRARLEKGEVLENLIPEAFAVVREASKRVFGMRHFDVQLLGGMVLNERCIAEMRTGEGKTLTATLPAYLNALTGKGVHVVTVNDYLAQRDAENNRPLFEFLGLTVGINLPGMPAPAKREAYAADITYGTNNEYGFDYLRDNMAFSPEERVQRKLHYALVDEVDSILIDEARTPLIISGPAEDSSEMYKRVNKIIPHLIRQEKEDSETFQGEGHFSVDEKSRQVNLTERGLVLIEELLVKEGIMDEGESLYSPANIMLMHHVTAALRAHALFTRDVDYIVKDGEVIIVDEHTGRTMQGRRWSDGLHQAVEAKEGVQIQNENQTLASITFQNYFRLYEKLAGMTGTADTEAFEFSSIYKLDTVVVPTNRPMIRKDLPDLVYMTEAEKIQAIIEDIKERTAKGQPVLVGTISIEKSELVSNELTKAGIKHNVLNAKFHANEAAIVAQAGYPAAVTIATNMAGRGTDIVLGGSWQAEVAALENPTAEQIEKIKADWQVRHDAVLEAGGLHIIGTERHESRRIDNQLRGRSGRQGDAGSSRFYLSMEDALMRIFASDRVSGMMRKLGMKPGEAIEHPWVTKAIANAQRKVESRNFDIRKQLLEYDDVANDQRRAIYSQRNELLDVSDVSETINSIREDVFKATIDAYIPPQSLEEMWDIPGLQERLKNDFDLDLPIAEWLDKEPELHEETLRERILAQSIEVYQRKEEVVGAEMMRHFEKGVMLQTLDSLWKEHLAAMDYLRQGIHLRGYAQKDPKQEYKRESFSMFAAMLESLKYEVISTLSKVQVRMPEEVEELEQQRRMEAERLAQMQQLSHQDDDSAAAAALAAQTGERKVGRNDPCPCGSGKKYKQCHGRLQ
T1 sequence (P0AG99 whole entry, further chain): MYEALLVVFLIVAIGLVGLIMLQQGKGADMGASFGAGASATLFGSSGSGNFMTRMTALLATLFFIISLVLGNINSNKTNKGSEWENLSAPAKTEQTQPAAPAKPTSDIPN

| Molecule | fold increase in SecA ATPase activity [1] | stoichiometry N [2] |
| --- | --- | --- |
| CCCCCCCC/C=C\CCCCCCCC(=O)O[C@H](COC(=O)CCCCCCCCCCCCCCC)COP(=O)(O)OCC(O)COP(=O)(O)OC[C@@H](COC(=O)CCCCCCCCCCCCCCC)OC(=O)CCCCCCC/C=C\CCCCCCCC (some centres unmarked) [CL, 1',3'-bis[1-palmitoyl-2-oleoyl-sn-glycero-3-phospho]-glycerol] | ~ 4 fold | – |
| B1 | – | 2 |
